Data reported in patent publication US12329801B2, “Regenerative polypeptides and uses thereof” (JUVENA THERAPEUTICS, INC., priority 2021, dated 2025).

Columns and labels:
[1] = system: 10 week old dystrophic mice (mdx); assay: Duchenne muscular dystrophy model, 10 week old dystrophic mice (mdx); type: in vivo; conditions: 150 μg/kg with 1.2 g/kg sodium butyrate subcutaneously every 24 hours
Procedure: Between 3-6 weeks old, the skeletal muscle of mdx mice undergoes severe necrosis followed by an increase in the activation of satellite cells to promote muscle regeneration. Treatment with IGF2 fusion polypeptide described herein can improve the regeneration process and therefore muscle health. Mice were fed ad libitum and housed under controlled conditions of lighting (12-hour light/12-hour dark) and temperature (22-24° C.). Mice were allowed to acclimate for 3 days prior to the initiation of the experiment. During the acclimation period, the weight, forelimb and both limb grip strength as well as in vivo tetanic force were assessed to determine the baseline strength of each mouse. 10 week old dystrophic mice (mdx) were injected with the IGF2 fusion polypeptide with sodium butyrate subcutaneously for 14 days. At day 7, forelimb and both grip strength are measured as described in Example 4. BrdU was injected on days 12, 13 and 14. On days 13, 14 and 15, forelimb and both limb grip strength and in vivo tetanic force were tested, and an endurance test to determine max distance and max speed was performed using methods described in Example 4.
Mice were euthanized. The right tibialis anterior and gastrocnemius were collected, immersed in Tissue-TEK OCT and then flash frozen in a chilled isopentane bath precooled in liquid nitrogen and stored at −80° C. Tissue was sectioned and stained for Laminin to determine the cross sectional area (CSA) of muscle fibers, for eMyHC to measure new fiber formation and for BrdU to assess the proliferation rate. The left anterior tibialis and gastrocnemius were collected and flash frozen in liquid nitrogen for molecular analysis that include qPCR and western blot.

[2] = system: human myoblast cells; assay: Human myoblast differentiation (% area eMyHC) with IGF2 and/or sodium butyrate; type: cell-based
Procedure: Fresh media was added every 24 hours. […], cells were pulsed for 2-5 hours with EdU (30 uM), ethanol fixed, stained with Hoescht 3342, immunostained for proliferation—as measured by the percent of cells staining positive for EdU (% EdU)-, and immunostained for differentiation—as measured by the increase in cellular area staining positive for embryonic myosin heavy chain (% eMyHC) relative to the negative controls, which received media and vehicle only. The total area of eMyHc positive cells was analyzed, and treated cells were compared to cells treated with the vehicle alone. […] Significance was determined by a p-value less than 0.05 by the one-way ANOVA Tukey Honest Significant Difference test.
Myoblast were cultured 96 h in the presence of IGF2 at indicated dose. Fresh media and IGF2 was added every 24 h.
Fresh media was added every 24 hours.
Significance was determined by a p-value less than 0.05 by the one-way ANOVA Tukey Honest Significant Difference test.

[3] = system: Aged human myoblasts; assay: Myogenic transcription factor expression in aged human myoblasts (qPCR); type: cell-based
Procedure: RNA was isolated from each well (RNeasy Mini Kit, Qiagen) and cDNA was obtained by reverse-transcription (High Capacity Reverse Transcription Kit, Thermo Fisher Scientific). Real-time quantitative PCR was performed using QuantStudio3 (Thermo Fisher).
Aged human myoblasts were cultured in well plates. […] Cells that had been cultured with IGF2 had increases in levels of MYOG at 48 hours and levels of MYOD at 72 hours.

IGF2: Human IGF2 amino acid sequence, SEQ ID NO: 29
bothlimb grip strength [1]: effective at improving | forelimb grip strength [1]: effective at improving | total work [1]: effective at improving | treadmill running distance [1]: effective at improving | treadmill running time to exhaustion [1]: effective at improving | muscle weight ([1]; vs vehicle): effective at improving | % eMyHC ([2]; IGF2 0.015 ug/mL alone, 96 h (FIG. 3B/3C)): 10.843% | % eMyHC ([2]; IGF2 0.03 ug/mL alone, 48 hours (FIG. 4A/4B)): 16.620% | MYF5 fold change ([3]; 48 h): 0.409 | MYOD1 fold change ([3]; 48 h): 0.519 | MYOG fold change ([3]; 48 h): 5.756 | MYF5 fold change ([3]; 72 h): 0.708 | MYOD1 fold change ([3]; 72 h): 5.723 | MYOG fold change ([3]; 72 h): 0.018
